This assay can be described thus: HEK WC Assay: Human embryonic kidney cells (HEK293), endogenously expressing soluble guanylate cyclase (sGC), were used to evaluate the activity of test compounds. Compounds stimulating the sGC receptor should cause an increase in the intracellular concentration of cGMP. HEK 293 cells were seeded in Dulbecco's Modification of Eagle's Medium supplemented with fetal bovine serum (10% final) and L-glutamine (2 mM final) in a 200 μL volume at a density of 1×10^5 cells/well in a poly-D-lysine coated 96 well flat bottom plate and grown overnight at 37° C. Medium was aspirated and cells were washed with 1× Hank's Buffered Saline Salt Solution (200 μL). Cells were then incubated for 15 minutes at 37° C. with 0.5 mM 3-isobutyl-1-methylxanthine (200 μL). Test article and sodium nitroprusside were then added to the assay mixture (2 μL each) and incubated at 37° C. for 10 minutes. After the 10 minute incubation, the assay mixture was aspirated and 0.1M HCl (200 μL) was added to the cells. The plate was incubated at 4° C. for 30 minutes in the 0.1M HCl to stop the reaction and lysed the cells. The plates were then centrifuged at 1,200 g for 5 minutes at room temperature. Supernatants were collected and transferred to a new flat bottom 96 well plate for analysis. Vehicle controls were carried out using DMSO (1%). A known sGC stimulator, BAY 41-2272, was used as the positive control. Samples were diluted with an equal volume of 1 M Ammonium Acetate (pH 7) to neutralize samples for better chromatography. A 2×cGMP standard curve was prepared in 0.1 M HCl and then diluted with an equal volume of 1 M Ammonium Acetate, with the following final concentrations in nM: 1024, 512, 256, 128, 64, 32, 16, 8, 4, 2, 1. cGMP concentrations were determined from each sample using the LC/MS conditions (Table 2 below) and calculated standard curve. EC50 values were calculated from concentration-response curves generated with GraphPad Prism Software. The format is cell-based.

SMILES strings stand for the structures.

Our source for the EC50 values is ChEMBL document CHEMBL5726211, “SGC stimulators” (2019).

What is called EC50 is the concentration at which the effect is half-maximal.

Turning to `CN(C)c1ccccc1C(=O)Nc1cnc(-c2cc(-c3ccon3)n(Cc3ccccc3F)n2)nc1N`, the EC50 is 40 to 60 µM.

On to `COc1ccc(C(=O)Nc2cnc(-c3cc(-c4ccon4)n(Cc4ccccc4F)n3)nc2N)cc1`, for which the EC50 was less than 20 µM.

Turning to `CC(C)(F)C(=O)Nc1cnc(-c2cc(-c3ccon3)n(Cc3ccccc3F)n2)nc1N`, the EC50 is less than 20 µM.

As to `[C-]#[N+]c1cc(-c2ccccn2)nn1Cc1ccccc1F`, the EC50 was 30 µM.

Consider `Nc1nc(-c2cc(-c3ncco3)n(Cc3ccccc3F)n2)ncc1NC(=O)C1(C(F)(F)F)CC1`, for which the EC50 was less than 20 µM.

With `Nc1nc(-c2cc(-c3ccon3)n(Cc3ccccc3F)n2)ncc1NC(=O)c1cccc(OC(F)(F)F)c1`, the EC50 is less than 20 µM.

As for `[C-]#[N+]C1(C(=O)Nc2cnc(-c3cc(-c4ccon4)n(Cc4ccccc4F)n3)nc2N)CC1`, the EC50 was less than 20 µM.

For `Nc1nc(-c2cc(-c3ccon3)n(Cc3ccccc3F)n2)ncc1NC(=O)C1CC2C=CC1C2` (stereo unspecified), the concentration giving a half-maximal response (EC50) was less than 20 µM.

As to `Cc1cccc(C)c1C(=O)Nc1cnc(-c2cc(-c3ccon3)n(Cc3ccccc3F)n2)nc1N`, the 50% effective concentration (EC50) was less than 20 µM.

For the compound `Nc1nc(-c2cc(-c3ccon3)n(Cc3ccccc3F)n2)ncc1NC(=O)c1cscn1`, the EC50 was less than 20 µM.

In the case of `CCOC(=O)c1cnc(-c2cc(-c3ccon3)n(Cc3ccccc3F)n2)nc1O`, the EC50 was 20 to 40 µM.
